{"source": "patent US8278455B2", "about": "“5- or 6-substituted benzimidazole derivatives as inhibitors of respiratory syncytial virus replication” (Janssen Pharmaceutica N.V., priority 2003, dated 2012)", "data": [{"system": "Respiratory Syncytial Virus", "assay": "In vitro screening for activity against Respiratory Syncytial Virus (MTT tetrazolium colorimetric assay, HeLa cells)", "assay_type": "cell-based", "settings": "protection against RSV cytopathology in HeLa cells, 7 days after infection; pEC50 = −log of EC50 in molar units", "source_text": "The percent protection against cytopathology caused by viruses (antiviral activity or EC50) achieved by tested compounds and their cytotoxicity (CC50) are both calculated from dose-response curves. The selectivity of the antiviral effect is represented by the selectivity index (SI), calculated by dividing the CC50 (cytotoxic dose for 50% of the cells) by the EC50 (antiviral activity for 50% of the cells). The tables in the above experimental part list the category to which each of the prepared compounds belong. Compounds belonging to activity category “A” have an pEC50 (−log of EC50 when expressed in molar units) equal to or more than 7. Compounds belonging to activity category “B” have a pEC50 value between 6 and 7.\nAutomated tetrazolium-based […] assays were used for determination of EC50 and CC50 of test compounds. Flat-bottom, 96-well plastic microtiter trays were filled with 180 μl of Eagle's Basal Medium, supplemented with 5% FCS (0% for FLU) and 20 mM Hepes buffer. Subsequently, stock solutions (7.8× final test concentration) of compounds were added in 45 μl volumes to a series of triplicate wells so as to allow simultaneous evaluation of their effects on virus- and mock-infected cells. Five five-fold dilutions were made directly in the microtiter trays using a robot system. Untreated virus controls, and HeLa cell controls were included in each test. Approximately 100 TCID50 of Respiratory Syncytial Virus was added to two of the three rows in a volume of 50 μl. The same volume of medium was added to the third row to measure the cytotoxicity of the compounds at the same concentrations as those used to measure the antiviral activity. After two hours of incubation, a suspension (4×10^5 cells/ml) of HeLa cells was added to all wells in a volume of 50 μl. The cultures were incubated at 37° C. in a 5% CO2 atmosphere. Seven days after infection the cytotoxicity and the antiviral activity was examined spectrophotometrically. To each well of the microtiter tray, 25 μl of a solution of MTT (3-(4,5-dimethylthiazol-2-yl)-2,5-diphenyltetrazolium bromide) was added. The trays were further incubated at 37° C. for 2 hours, after which the medium was removed from each cup. Solubilization of the formazan crystals was achieved by adding 100 μl 2-propanol. Complete dissolution of the formazan crystals were obtained after the trays have been placed on a plate shaker for 10 min. Finally, the absorbances were read in an eight-channel computer-controlled photometer (Multiskan MCC, Flow Laboratories) at two wavelengths (540 and 690 nm). The absorbance measured at 690 nm was automatically subtracted from the absorbance at 540 nm, so as to eliminate the effects of non-specific absorption.", "values": [{"compound": "Cc1ccc(O)c(Cn2c(NC3CCN(C)CC3)nc3ccc(CNCCc4ccccc4)cc32)n1", "note": "[Compound 110]", "Activity": 5.8}, {"compound": "Cc1ccc(O)c(Cn2c(NC3CCN(C)CC3)nc3ccc(CNc4cccc(Cl)c4)cc32)n1", "note": "[Compound 11]", "Activity": 8.2}, {"compound": "Cc1ccc(O)c(Cn2c(NC3CCN(C)CC3)nc3ccc(CNc4cccc(C(N)=O)c4)cc32)n1", "note": "[Compound 58]", "Activity": 7.3}, {"compound": "Cc1ccc(O)c(Cn2c(NC3CCN(C)CC3)nc3cc(CNc4ccccc4)ccc32)n1", "note": "[Compound 131]", "Activity": "<4"}, {"compound": "CCOC(=O)c1cccc(NCc2ccc3nc(NC4CCN(C)CC4)n(Cc4nc(C)ccc4O)c3c2)c1", "note": "[Compound 57]", "Activity": 7.3}, {"compound": "COc1ccc(CCNc2nc3cc(CO)ccc3n2Cc2nc(C)ccc2O)cc1", "note": "[Compound 189]", "Activity": "<4"}, {"compound": "Cc1ccc(O)c(Cn2c(NC3CCN(C)CC3)nc3ccc(CNc4ccccc4C(C)C)cc32)n1", "note": "[Compound 21]", "Activity": 7.9}, {"compound": "Cc1ccc(O)c(Cn2c(NCCc3ccccc3)nc3cc(CO)ccc32)n1", "note": "[Compound 185]", "Activity": "<4"}, {"compound": "Cc1ccc(O)c(Cn2c(NC3CCN(C)CC3)nc3ccc(CCc4ccccc4)cc32)n1", "note": "[Compound 29]", "Activity": 7.8}, {"compound": "Cc1ccc(O)c(Cn2c(NC3CCN(C)CC3)nc3ccc(CNc4cc(C)c(C)cc4S)cc32)n1", "note": "[Compound 91]", "Activity": 6.7}, {"compound": "Cc1ccc(O)c(Cn2c(NC3CCN(C)CC3)nc3ccc(CN(Cc4ccccc4)c4ccccc4)cc32)n1", "note": "[Compound 80]", "Activity": 6.9}, {"compound": "Cc1ccc(O)c(Cn2c(NC3CCN(C)CC3)nc3ccc(CNc4ccc(C(C)C)cc4)cc32)n1", "note": "[Compound 76]", "Activity": 7}, {"compound": "Cc1ccc(O)c(Cn2c(NC3CCN(C)CC3)nc3cc(/C=C/C#N)ccc32)n1", "note": "[Compound 115]", "Activity": 5.1}, {"compound": "Cc1ccc(O)c(Cn2c(NC3CCN(C)CC3)nc3ccc(CNc4ccc(S(N)(=O)=O)cc4)cc32)n1", "note": "[Compound 10]", "Activity": 8.3}, {"compound": "Cc1cc(C)cc(N(CCO)Cc2ccc3nc(NC4CCN(C)CC4)n(Cc4nc(C)ccc4O)c3c2)c1", "note": "[Compound 1]", "Activity": 9.4}, {"compound": "CCc1cc(Br)ccc1NCc1ccc2nc(NC3CCN(C)CC3)n(Cc3nc(C)ccc3O)c2c1", "note": "[Compound 74]", "Activity": 7.1}, {"compound": "Cc1ccc(O)c(Cn2c(NC3CCN(C)CC3)nc3ccc(CNc4ccccc4F)cc32)n1", "note": "[Compound 23]", "Activity": 7.9}, {"compound": "Cc1ccc(O)c(Cn2c(NC3CCN(C)CC3)nc3ccc(CNc4ccccc4-c4ccccc4)cc32)n1", "note": "[Compound 42]", "Activity": 7.6}, {"compound": "Cc1cccc(NCc2ccc3nc(NC4CCN(Cc5ccccc5)CC4)n(Cc4nc(C)ccc4O)c3c2)c1", "note": "[Compound 167]", "Activity": 6.8}, {"compound": "Cc1ccc(O)c(Cn2c(NC3CCN(C)CC3)nc3ccc(CN(CC(=O)O)c4ccccc4)cc32)n1", "note": "[Compound 39]", "Activity": 7.7}, {"compound": "CCc1cccc(NCc2ccc3nc(NC4CCN(C)CC4)n(Cc4nc(C)ccc4O)c3c2)c1", "note": "[Compound 15]", "Activity": 8}, {"compound": "Cc1ccc(O)c(Cn2c(NC3CCN(CCN)CC3)nc3cc(CCc4ccccc4)ccc32)n1.Cl", "note": "[Compound 157]", "Activity": 7.9}, {"compound": "Cc1ccc(O)c(Cn2c(NC3CCN(C)CC3)nc3ccc(C(=O)NCc4ccccn4)cc32)n1", "note": "[Compound 134]", "Activity": "<4"}, {"compound": "CCOC(=O)c1ccc(NCc2ccc3nc(NC4CCN(C)CC4)n(Cc4nc(C)ccc4O)c3c2)c(O)c1", "note": "[Compound 24]", "Activity": 7.9}, {"compound": "CCOC(=O)c1ccc(NCc2ccc3nc(NC4CCN(C)CC4)n(Cc4nc(C)ccc4O)c3c2)cc1", "note": "[Compound 54]", "Activity": 7.4}, {"compound": "Cc1ccc(O)c(Cn2c(NCCc3ccccc3)nc3ccc(CNc4cc(Cl)cc(Cl)c4)cc32)n1", "note": "[Compound 192]", "Activity": "<4"}, {"compound": "Cc1ccc(O)c(Cn2c(NC3CCN(CCC(N)=O)CC3)nc3ccc(CCc4ccccc4)cc32)n1", "note": "[Compound 163]", "Activity": 7.2}, {"compound": "Cc1ccc(O)c(Cn2c(NC3CCN(C)CC3)nc3ccc(CNc4ccc(Cl)cc4Cl)cc32)n1", "note": "[Compound 70]", "Activity": 7.2}, {"compound": "C#Cc1cccc(NCc2ccc3nc(NC4CCN(C)CC4)n(Cc4nc(C)ccc4O)c3c2)c1", "note": "[Compound 13]", "Activity": 8.1}, {"compound": "Cc1ccc(O)c(Cn2c(NC3CCN(C)CC3)nc3ccc(CN(Cc4cnc[nH]4)c4ccc(Cl)cc4)cc32)n1", "note": "[Compound 27]", "Activity": 7.9}, {"compound": "Cc1ccc(O)c(Cn2c(NCCCN3CCCCC3)nc3cc(CO)ccc32)n1", "note": "[Compound 182]", "Activity": 5}, {"compound": "Cc1ccc(O)c(Cn2c(NC3CCN(C)CC3)nc3ccc(CNc4ccc(C(F)(F)F)cc4)cc32)n1", "note": "[Compound 71]", "Activity": 7.2}, {"compound": "Cc1ccc(O)c(Cn2c(NCCCN3CCCCC3)nc3ccc(CO)cc32)n1", "note": "[Compound 177]", "Activity": 7.1}, {"compound": "Cc1ccc(O)c(Cn2c(NC3CCN(C)CC3)nc3ccc(CO)cc32)n1", "note": "[Compound 92]", "Activity": 6.6}, {"compound": "Cc1cc(C)cc(NCc2ccc3c(c2)nc(NCC(O)CO)n3Cc2nc(C)ccc2O)c1", "note": "(stereo not shown) [Compound 180]", "Activity": 5.6}, {"compound": "Cc1ccc(O)c(Cn2c(NC3CCN(CCO)CC3)nc3ccc(CNc4cccc(O)c4)cc32)n1", "note": "[Compound 159]", "Activity": 7.9}, {"compound": "Cc1ccc(O)c(Cn2c(NC3CCN(C)CC3)nc3ccc(NCc4ccccc4)cc32)n1", "note": "[Compound 56]", "Activity": 7.3}, {"compound": "CCN(CCO)Cc1ccc2nc(NC3CCN(C)CC3)n(Cc3nc(C)ccc3O)c2c1", "note": "[Compound 111]", "Activity": 5.6}, {"compound": "Cc1ccc(/C=C/c2ccc3c(c2)nc(NC2CCN(C)CC2)n3Cc2nc(C)ccc2O)cc1", "note": "[Compound 125]", "Activity": "<4"}, {"compound": "Cc1cc(C)cc(NCc2cc(C)c3nc(NC4CCN(CCO)CC4)n(Cc4nc(C)ccc4O)c3c2)c1", "note": "[Compound 172]", "Activity": 8.5}, {"compound": "2-[6-[(1-ethylidene-3-methyl-penta-2,4-dienylamino)-methyl]-2-(1-methyl-piperidin-4-ylamino)-benzoimidazol-1-ylmethyl]-6-methyl-pyridin-3-ol [Compound 9]", "Activity": 8.3}, {"compound": "Cc1cc(C)cc(NCc2ccc3nc(NC4CCN(CCO)CC4)n(Cc4nc(C)ccc4O)c3c2)c1", "note": "[Compound 149]", "Activity": 8.8}, {"compound": "Cc1ccc(O)c(Cn2c(NC3CCN(C)CC3)nc3ccc(CNc4ccc(Br)cc4)cc32)n1", "note": "[Compound 38]", "Activity": 7.7}, {"compound": "Cc1ccc(O)c(Cn2c(NC3CCN(C)CC3)nc3ccc(/C=C/c4ccccc4)cc32)n1", "note": "[Compound 99]", "Activity": 6.4}, {"compound": "Cc1cc(C)c(NCc2ccc3nc(NC4CCN(C)CC4)n(Cc4nc(C)ccc4O)c3c2)c(C)c1", "note": "[Compound 96]", "Activity": 6.6}, {"compound": "Cc1cccc(/C=C/c2ccc3c(c2)nc(NC2CCN(CCN)CC2)n3Cc2nc(C)ccc2O)c1.Cl", "note": "[Compound 147]", "Activity": 8.8}, {"compound": "Cc1ccc(O)c(Cn2c(NC3CCN(C)CC3)nc3ccc(CNc4ccc(C#N)cc4)cc32)n1", "note": "[Compound 12]", "Activity": 8.2}, {"compound": "Cc1ccc(O)c(Cn2c(NC3CCN(C)CC3)nc3ccc(/C=C/c4ccc(Cl)cc4)cc32)n1", "note": "[Compound 126]", "Activity": "<4"}, {"compound": "Cc1ccc(O)c(Cn2c(NC3CCN(C)CC3)nc3ccc(CNc4ccc(C)c(C)c4)cc32)n1", "note": "[Compound 41]", "Activity": 7.6}, {"compound": "Cc1ccc(O)c(Cn2c(NC3CCN(C)CC3)nc3ccc(CN4CCc5cc(Br)ccc54)cc32)n1", "note": "[Compound 81]", "Activity": 6.9}, {"compound": "Cc1ccc(O)c(Cn2c(NC3CCN(C)CC3)nc3ccc(CNc4ccccc4Br)cc32)n1", "note": "[Compound 22]", "Activity": 7.9}, {"compound": "Cc1ccc(O)c(Cn2c(NC3CCN(C)CC3)nc3ccc(NC(=O)Cc4ccccc4)cc32)n1", "note": "[Compound 107]", "Activity": 6.1}, {"compound": "Cc1ccc(O)c(Cn2c(NC3CCN(C)CC3)nc3ccc(CNc4ccc(C)c(F)c4)cc32)n1", "note": "[Compound 60]", "Activity": 7.3}, {"compound": "CCc1ccccc1NCc1ccc2nc(NC3CCN(C)CC3)n(Cc3nc(C)ccc3O)c2c1", "note": "[Compound 8]", "Activity": 8.4}, {"compound": "CCc1cc(C#N)ccc1NCc1ccc2nc(NC3CCN(C)CC3)n(Cc3nc(C)ccc3O)c2c1", "note": "[Compound 43]", "Activity": 7.6}, {"compound": "Cc1ccc(O)c(Cn2c(NC3CCN(C)CC3)nc3ccc(CNCCN4CCOCC4)cc32)n1", "note": "[Compound 117]", "Activity": 5.1}, {"compound": "Cc1ccc(NCc2ccc3nc(NC4CCN(C)CC4)n(Cc4nc(C)ccc4O)c3c2)cc1", "note": "[Compound 37]", "Activity": 7.7}, {"compound": "Cc1cc(C)cc(NCc2ccc3c(c2)nc(NCCCN2CCCCC2)n3Cc2nc(C)ccc2O)c1", "note": "[Compound 176]", "Activity": 7.2}, {"compound": "Cc1ccc(O)c(Cn2c(NC3CCN(C)CC3)nc3ccc(CNc4cccc(F)c4)cc32)n1", "note": "[Compound 18]", "Activity": 7.9}, {"compound": "CCc1cccc(C)c1NCc1ccc2nc(NC3CCN(C)CC3)n(Cc3nc(C)ccc3O)c2c1", "note": "[Compound 47]", "Activity": 7.5}, {"compound": "Cc1ccc(O)c(Cn2c(NC3CCN(C)CC3)nc3cc(NC(=O)c4cccnc4)ccc32)n1", "note": "[Compound 55]", "Activity": 7.3}]}]}
